For data set [1] the following is noted: Liquid, Ebulliometric method (Recirculating still).
The nature of data set [2]: refractive index (Na D-line) (dimensionless). The settings on record: 293 K; 96.15 kPa; Liquid; Standard Abbe refractometry.
The nature of data set [3]: refractive index (Na D-line) (dimensionless); xn = mol fraction of the nth substance listed. The settings on record: 293 K, 96.15 kPa, Liquid, Standard Abbe refractometry.

By vapor or sublimation pressure is commonly meant the equilibrium pressure above the liquid or solid. In general, refractive index refers to a measure of how strongly the sample bends light.

SMILES strings stand for the structures. ± gives the expanded uncertainty stated by the source.

For `CC(=O)O` [acetic acid], the “vapor or sublimation pressure” value in data set [1] (388.91 K) was 96.15 ± 0.98 kPa. Further, the refractive index in data set [2] turned out to be 1.3724 ± 0.004.
Regarding `CC(=O)O` [acetic acid] + COc1ccccc1, the refractive index in data set [3] (x1 = 1) turned out to be 1.3724 ± 0.004.
Regarding `CC(C)=O` [acetone], the “vapor or sublimation pressure” value in data set [1] (327.9 K) is given as 96.15 ± 0.98 kPa. For the same compound, the refractive index in data set [2] worked out at 1.3606 ± 0.004.
As for `CC(C)=O` [acetone] + COc1ccccc1, the refractive index in data set [3] (x1 = 1) turned out to be 1.3606 ± 0.004.
For the compound `Nc1ccccc1` [aniline], in data set [1] (455.4 K), the “vapor or sublimation pressure” value is listed as 96.15 ± 0.99 kPa. Moreover, the refractive index in data set [2] came to 1.5868 ± 0.004.
As to `Nc1ccccc1` [aniline] + CN(C)C=O, the refractive index in data set [3] (x2 = 0) is listed as 1.5868 ± 0.004; in data set [3] (x2 = 0.0624) it was 1.5795 ± 0.004; in data set [3] (x2 = 0.1252), 1.5723 ± 0.004; in data set [3] (x2 = 0.2423) it was 1.5575 ± 0.004; in data set [3] (x2 = 0.3527), 1.543 ± 0.004; in data set [3] (x2 = 0.459), 1.5267 ± 0.004. The refractive index in data set [3] (x2 = 0.5592) is listed as 1.5119 ± 0.004; in data set [3] (x2 = 0.6561) it was 1.4975 ± 0.004; in data set [3] (x2 = 0.7474), 1.4799 ± 0.004; in data set [3] (x2 = 0.8363), 1.4638 ± 0.004; in data set [3] (x2 = 0.9206), 1.4477 ± 0.004; in data set [3] (x2 = 0.9602), 1.4401 ± 0.004.
Turning to `COc1ccccc1` [anisole], the “vapor or sublimation pressure” value in data set [1] (424.55 K), in data set [1] (424.61 K) and in data set [1] (424.79 K) was 96.15 ± 0.99 kPa throughout. Also, the refractive index in data set [2] turned out to be 1.5175 ± 0.004.
In the case of `COc1ccccc1` [anisole] + CC(=O)O, the refractive index in data set [3] (x2 = 0) was determined as 1.5175 ± 0.004; in data set [3] (x2 = 0.0875), 1.5107 ± 0.004; in data set [3] (x2 = 0.167) it was 1.503 ± 0.004; in data set [3] (x2 = 0.3109), 1.4878 ± 0.004; in data set [3] (x2 = 0.4358), 1.4731 ± 0.004; in data set [3] (x2 = 0.5453), 1.4584 ± 0.004. Moreover, the refractive index was 1.4441 ± 0.004 in data set [3] (x2 = 0.6416); 1.4295 ± 0.004 in data set [3] (x2 = 0.7302); 1.4155 ± 0.004 in data set [3] (x2 = 0.8075); 1.4018 ± 0.004 in data set [3] (x2 = 0.877); 1.3874 ± 0.004 in data set [3] (x2 = 0.9413); 1.3807 ± 0.004 in data set [3] (x2 = 0.9711).
For the compound `COc1ccccc1` [anisole] + CC(C)=O, the refractive index in data set [3] (x2 = 0) is 1.5175 ± 0.004; in data set [3] (x2 = 0.0888) it was 1.5095 ± 0.004; in data set [3] (x2 = 0.1723), 1.4998 ± 0.004; in data set [3] (x2 = 0.3184), 1.4879 ± 0.004; in data set [3] (x2 = 0.4448) it was 1.4709 ± 0.004; in data set [3] (x2 = 0.5541), 1.459 ± 0.004. Also, the refractive index in data set [3] (x2 = 0.6508) was determined as 1.4441 ± 0.004; in data set [3] (x2 = 0.736) it was 1.4285 ± 0.004; in data set [3] (x2 = 0.8121) it was 1.406 ± 0.004; in data set [3] (x2 = 0.8816), 1.3923 ± 0.004; in data set [3] (x2 = 0.9434), 1.3746 ± 0.004; in data set [3] (x2 = 0.9725), 1.3678 ± 0.004.
For the compound `COc1ccccc1` [anisole] + CC(C)O, the refractive index in data set [3] (x2 = 0) came out at 1.5175 ± 0.004; in data set [3] (x2 = 0.0879) it was 1.5092 ± 0.004; in data set [3] (x2 = 0.1663), 1.5011 ± 0.004; in data set [3] (x2 = 0.3122), 1.484 ± 0.004; in data set [3] (x2 = 0.4359), 1.4688 ± 0.004; in data set [3] (x2 = 0.5438), 1.4543 ± 0.004. Also, the refractive index in data set [3] (x2 = 0.6429) was 1.4403 ± 0.004; in data set [3] (x2 = 0.7293), 1.4272 ± 0.004; in data set [3] (x2 = 0.8063) it was 1.4143 ± 0.004; in data set [3] (x2 = 0.879), 1.4019 ± 0.004; in data set [3] (x2 = 0.9372) it was 1.3911 ± 0.004; in data set [3] (x2 = 0.9693) it was 1.3861 ± 0.004.
`CN(C)C=O` [dimethylformamide]: the “vapor or sublimation pressure” value in data set [1] (424.53 K) and in data set [1] (424.6 K) was 96.15 ± 0.99 kPa in each case. In addition, in data set [2], the refractive index is recorded as 1.4318 ± 0.004.
With `CN(C)C=O` [dimethylformamide] + Nc1ccccc1, in data set [3] (x1 = 1), the refractive index was determined as 1.4318 ± 0.004.
As for `CC(C)O` [propan-2-ol], the “vapor or sublimation pressure” value in data set [1] (354.17 K) is on record as 96.15 ± 0.98 kPa. Moreover, in data set [2], the refractive index turned out to be 1.3758 ± 0.004.
Consider `CC(C)O` [propan-2-ol] + COc1ccccc1, for which, in data set [3] (x1 = 1), the refractive index came to 1.3758 ± 0.004.

(Values after the NIST ThermoML archive (doi:10.1021/acs.jced.6b00700).)
